Patent US20050239656A1, “Pyridine compounds or salts thereof and herbicides containing the same” (priority 2002, published 2005)

How the values were obtained:
barnyardgrass [1] = assay: Test Example 3: paddy pot test, application under submerged conditions; format: in vivo, Echinochloa crus-galli L.; settings: submerged application at 0.5 leaf stage, visually observed 14 days after application, 0 = non-treated, 100 = complete kill
Method in brief: (§1)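 After sowing seeds and planting wapato tubers in flooded paddy soil, an aqueous dilution of the formulated compound was added to the 3–4 cm flood water at early leaf stage. Percent growth control relative to the untreated plot was assessed visually on day 14.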

velvetleaf [2] = assay: Test Example 1: foliage treatment, upland pot test; format: in vivo, Abutilon theophrasti MEDIC.; settings: active ingredient 1000 g/ha, observed 18th to 23rd day, 0 = non-treated, 100 = complete kill
Text: (§2) Upland field soil was put into a 1/170,000 ha pot, and seed of various plants were sown. Then, when the plants reached predetermined leaf stages ((1) barnyardgrass: 1.3 to 2.8 leaf stages, (2) crabgrass: 1.0 to 2.8 leaf stages, (3) green foxtail: 1.3 to 2.6 leaf stages, (4) redroot pigweed: 0.1 to 1.2 leaf stages, (5) prickly sida: 0.1 to 1.2 leaf stages, (6) velvetleaf: 0.1 to 1.2 leaf stages, (7) tall morningglory: 0.1 to 1.5 leaf stages, (8) rice: 1.2 to 2.6 leaf stages, (9) wheat: 1.3 to 2.4 leaf stages, (10) corn, 2.1 to 3.2 leaf stages, (11) soybean: 0.1 to 0.4 leaf stage), a wettable powder or emulsifiable concentrate having the compound of the present invention formulated in accordance with a usual formulation method, was weighed so that the active ingredient would be a predetermined amount, and diluted with water in an amount of 500 L/ha. To the diluted solution, 0.1% (v/v) of agricultural spreader was added. The herbicide thus adjusted was applied by a small size sprayer for foliage treatment. On the 18th to 23rd days after the application of the herbicide, the growth of the respective plants was visually observed, and the herbicidal effects were evaluated by the growth controlling degrees (%) ranging from 0 (equivalent to the non-treated plot) to 100 (complete kill), whereby the results shown in Table 3, were obtained.

corn [3] = assay: Test Example 1: foliage treatment, upland pot test; format: in vivo, Zea mays L.; settings: crop, active ingredient 1000 g/ha, observed 18th to 23rd day, 0 = non-treated, 100 = complete kill
Text: as §2

soybean [4] = assay: Test Example 1: foliage treatment, upland pot test; format: in vivo, Glycine max Merr.; settings: crop, active ingredient 1000 g/ha, observed 18th to 23rd day, 0 = non-treated, 100 = complete kill
Text: as §2

rice [5] = assay: Test Example 1: foliage treatment, upland pot test; format: in vivo, Oryza sativa L.; settings: crop, active ingredient 1000 g/ha, observed 18th to 23rd day, 0 = non-treated, 100 = complete kill
Text: as §2

rice (var. Nihonbare) = assay: Test Example 3: paddy pot test, transplanted rice; format: in vivo, Oryza sativa L.; settings: applied 4th day after transplantation, visually observed 21st day after application, 0 = non-treated, 100 = complete kill
Method in brief: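 Rice (2-leaf stage) was transplanted 3 cm deep into puddled, leveled paddy soil under 3–4 cm flooding. On day 4 after transplanting, diluted wettable powder or emulsifiable concentrate was pipetted onto the water at a predetermined active-ingredient dose. Growth control (0 = untreated, 100 = complete kill) was scored visually 21 days later.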

japanese ribbon wapato = assay: Test Example 3: paddy pot test, application under submerged conditions; format: in vivo, Sagittaria pygniaea; settings: submerged application at primary leaf stage, visually observed 14 days after application, 0 = non-treated, 100 = complete kill
Method in brief: as §1

redroot pigweed [6] = assay: Test Example 1: foliage treatment, upland pot test; format: in vivo, Amaranthus retroflexus L.; settings: active ingredient 1000 g/ha, observed 18th to 23rd day, 0 = non-treated, 100 = complete kill
Text: as §2

prickly sida [7] = assay: Test Example 1: foliage treatment, upland pot test; format: in vivo, Sida spinosa L.; settings: active ingredient 1000 g/ha, observed 18th to 23rd day, 0 = non-treated, 100 = complete kill
Text: as §2

japanese bulrush = assay: Test Example 3: paddy pot test, application under submerged conditions; format: in vivo, Scirpus juncoides; settings: submerged application at 0.5 leaf stage, visually observed 14 days after application, 0 = non-treated, 100 = complete kill
Method in brief: as §1

barnyardgrass [8] = assay: Test Example 1: foliage treatment, upland pot test; format: in vivo, Echinochloa crus-galli L.; settings: active ingredient 1000 g/ha, observed 18th to 23rd day, 0 = non-treated, 100 = complete kill
Text: as §2

velvetleaf [9] = assay: Test Example 2: soil surface treatment, upland pot test; format: in vivo, Abutilon theophrasti MEDIC.; settings: active ingredient 500 g/ha
Method in brief: (§3)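 Readout was visual percent growth control (0 matching untreated, 100 complete kill) at days 20–28. Compound, as emulsifiable concentrate or wettable powder at a preset active-ingredient rate in 1,500 L/ha water, was sprayed onto sown upland soil one day after sowing.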

redroot pigweed [10] = assay: as above; format: in vivo, Amaranthus retroflexus L.; settings: active ingredient 500 g/ha
Method in brief: as §3

soybean [11] = assay: as above; format: in vivo, Glycine max Merr.; settings: active ingredient 500 g/ha
Method in brief: as §3

crabgrass = assay: as above; format: in vivo, Digitaria sanguinalis L.; settings: active ingredient 500 g/ha
Method in brief: as §3

prickly sida [12] = assay: as above; format: in vivo, Sida spinosa L.; settings: active ingredient 500 g/ha
Method in brief: as §3

green foxtail = assay: as above; format: in vivo, Setaria viridis L.; settings: active ingredient 500 g/ha
Method in brief: as §3

barnyardgrass [13] = assay: as above; format: in vivo, Echinochloa crus-galli L.; settings: active ingredient 500 g/ha
Method in brief: as §3

corn [14] = assay: as above; format: in vivo, Zea mays L.; settings: active ingredient 500 g/ha
Method in brief: as §3

rice [15] = assay: as above; format: in vivo, Oryza sativa L.; settings: active ingredient 500 g/ha
Method in brief: as §3

[16] = observed day 21, 0 = non-treated, 100 = complete kill

Structure (SMILES)	Growth controlling degree (%) Velvetleaf (velvetleaf [9]; observed 20th to 28th day) [%]	Growth controlling degree (%) Redroot pigweed (redroot pigweed [10]; observed 20th to 28th day) [%]	Growth controlling degree (%) Soyabean (soybean [11]; observed 20th to 28th day) [%]	Growth controlling degree (%) Crabgrass (crabgrass; observed 20th to 28th day) [%]	Growth controlling degree (%) Prickly sida (prickly sida [12]; observed 20th to 28th day) [%]	Growth controlling degree (%) Green foxtail (green foxtail; observed 20th to 28th day) [%]	Growth controlling degree (%) Barnyardgrass (barnyardgrass [13]; observed 20th to 28th day) [%]	Growth controlling degree (%) Corn (corn [14]; observed 20th to 28th day) [%]	Growth controlling degree (%) Rice (rice [15]; observed 20th to 28th day) [%]	Growth controlling degree (%) Barnyardgrass (barnyardgrass [1]; active ingredient 250 g/ha) [%]	Growth controlling degree (%) Rice (rice (var. Nihonbare); active ingredient 250 g/ha) [%]	Growth controlling degree (%) Japanese ribbon wapato (japanese ribbon wapato; active ingredient 250 g/ha) [%]	Growth controlling degree (%) Japanese bulrush (japanese bulrush; active ingredient 250 g/ha) [%]	Growth controlling degree (%) Velvetleaf (velvetleaf [9]; [16]) [%]	Growth controlling degree (%) Redroot pigweed (redroot pigweed [10]; [16]) [%]	Growth controlling degree (%) Soyabean (soybean [11]; [16]) [%]	Growth controlling degree (%) Crabgrass (crabgrass; [16]) [%]	Growth controlling degree (%) Prickly sida (prickly sida [12]; [16]) [%]	Growth controlling degree (%) Green foxtail (green foxtail; [16]) [%]	Growth controlling degree (%) Barnyardgrass (barnyardgrass [13]; [16]) [%]	other results
CC(C)C(c1cnccc1Cl)N(C)C(=O)Cc1ccc(F)c(F)c1 (centres unmarked) [I-73]																					Growth controlling degree (%) Barnyardgrass (barnyardgrass [1]; active ingredient 125 g/ha): 98%; Growth controlling degree (%) Velvetleaf (velvetleaf [2]): 90%; Growth controlling degree (%) Corn (corn [3]): 0%; Growth controlling degree (%) Soybean (soybean [4]): 70%; Growth controlling degree (%) Rice (rice [5]): 30%; Growth controlling degree (%) Rice (rice (var. Nihonbare); active ingredient 125 g/ha): 0%; Growth controlling degree (%) Japanese ribbon wapato (japanese ribbon wapato; active ingredient 125 g/ha): 20%; Growth controlling degree (%) Redroot pigweed (redroot pigweed [6]): 60%; Growth controlling degree (%) Prickly sida (prickly sida [7]): 85%; Growth controlling degree (%) Japanese bulrush (japanese bulrush; active ingredient 125 g/ha): 90%; Growth controlling degree (%) Barnyardgrass (barnyardgrass [8]): 40%
CC(C)C(c1cnccc1Cl)N(C)C(=O)Cc1cccc(C(F)(F)F)c1F (centres unmarked) [I-74]																					Growth controlling degree (%) Velvetleaf (velvetleaf [2]): 90%; Growth controlling degree (%) Corn (corn [3]): 30%; Growth controlling degree (%) Soybean (soybean [4]): 30%; Growth controlling degree (%) Rice (rice [5]): 20%; Growth controlling degree (%) Redroot pigweed (redroot pigweed [6]): 60%; Growth controlling degree (%) Prickly sida (prickly sida [7]): 80%; Growth controlling degree (%) Barnyardgrass (barnyardgrass [8]): 50%
CC(C)C(c1cnccc1C(F)(F)F)N(C)C(=O)CC1C=CCC1 (centres unmarked) [I-183]	50	95	10	100	30	100	100	10	60												Growth controlling degree (%) Barnyardgrass (barnyardgrass [1]; active ingredient 500 g/ha): 100%; Growth controlling degree (%) Rice (rice (var. Nihonbare); active ingredient 500 g/ha): 10%; Growth controlling degree (%) Japanese ribbon wapato (japanese ribbon wapato; active ingredient 500 g/ha): 70%; Growth controlling degree (%) Japanese bulrush (japanese bulrush; active ingredient 500 g/ha): 100%
CC(C)C(c1cnccc1C(F)(F)F)N(C)C(=O)N(C)c1ccccc1 (centres unmarked) [I-232]	70	80	0	100	95	100	100	30	30												Growth controlling degree (%) Barnyardgrass (barnyardgrass [1]; active ingredient 500 g/ha): 100%; Growth controlling degree (%) Rice (rice (var. Nihonbare); active ingredient 500 g/ha): 60%; Growth controlling degree (%) Japanese ribbon wapato (japanese ribbon wapato; active ingredient 500 g/ha): 70%; Growth controlling degree (%) Japanese bulrush (japanese bulrush; active ingredient 500 g/ha): 90%
Cc1cc(Cl)ccc1OCC(=O)N(C)C(c1cnccc1C(F)(F)F)C(C)C (centres unmarked) [I-234]	30	70	0	98	50	70	95	0	10	100	0	40	90								
COc1ccc(OCC(=O)N(C)C(c2cnccc2C(F)(F)F)C(C)C)cc1 (centres unmarked) [I-244]	0	60	0	80	60	80	50	30	20	100	0	50	95								
CCc1ccc(OCC(=O)N(C)C(c2cnccc2C(F)(F)F)C(C)C)cc1 (centres unmarked) [I-249]										98	0	0	98	50	60	20	98	80	98	95	Growth controlling degree (%) Corn (corn [14]; [16]): 20%; Growth controlling degree (%) Rice (rice [15]; [16]): 20%
CC(C)C(c1cnccc1C(F)(F)F)N(C)C(=O)COc1ccc(Br)cc1 (centres unmarked) [I-255]										100	0	20	95	70	70	10	98	98	98	95	Growth controlling degree (%) Corn (corn [14]; [16]): 30%; Growth controlling degree (%) Rice (rice [15]; [16]): 20%
CC(C)C(c1cnccc1C(F)(F)F)N(C)C(=O)CSc1ccccc1 (centres unmarked) [I-256]										100	0	20	90	0	80	0	98	10	100	70	Growth controlling degree (%) Corn (corn [14]; [16]): 10%; Growth controlling degree (%) Rice (rice [15]; [16]): 0%
CCN(C(=O)COc1ccccc1)C(c1cnccc1C(F)(F)F)C(C)C (centres unmarked) [I-259]										98	40	90	70	10	50	0	75	40	98	70	Growth controlling degree (%) Corn (corn [14]; [16]): 30%; Growth controlling degree (%) Rice (rice [15]; [16]): 10%
